Drawing on PubChem BioAssay (NCI), this text covers TGI for 13 compounds.

Some test systems named below: HL-60(TB) leukemia; NCI/ADR-RES ovarian; HCC-2998 colon; TK-10 renal; SK-MEL-5 melanoma; U251 CNS; MDA-MB-435; PC-3 prostate; OVCAR-4 ovarian; SW-620 colon.
Experiment in all cases: inhibition of tumour cell growth, NCI panel, 48 h

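Tested at 5 concentrations; 48 h exposure; 96-well plates; endpoints linearly interpolated, else capped at highest concentration. TGI: total growth inhibition.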

On to `N#Cc1c(-c2ccc(Cl)cc2)[nH]c(=O)n(C2OC(CO)C(O)C(O)C2O)c1=O` (configuration not stated), for which the TGI with HL-60(TB) leukemia, in the experiment on NCI/ADR-RES ovarian, in the experiment with HCC-2998 colon, with TK-10 renal, in the experiment on SK-MEL-5 melanoma and with U251 CNS was more than 100 µM throughout. In addition, the TGI in the experiment with MDA-MB-435, with PC-3 prostate, in the experiment on OVCAR-4 ovarian and in the experiment on SW-620 colon was more than 100 µM throughout.
Regarding `Cc1ccc(S(=O)(=O)Oc2nc3ccccc3nc2OS(=O)(=O)c2ccc(C)cc2)cc1`, the TGI is more than 100 µM in the experiment with HL-60(TB) leukemia; more than 100 µM in the experiment on NCI/ADR-RES ovarian; more than 100 µM in the experiment on HCC-2998 colon; more than 100 µM in the experiment on TK-10 renal; 56.1 µM in the experiment on SK-MEL-5 melanoma; more than 100 µM in the experiment with U251 CNS. The TGI in the experiment with MDA-MB-435, in the experiment on PC-3 prostate and in the experiment on SW-620 colon was more than 100 µM in each case.
As for `CN(C)CCn1c(=O)c2ccc(NCCN3CCNCC3)c3c(=O)c4ccccc4n(c1=O)c23`, the TGI turned out to be 18.4 µM in the experiment on HL-60(TB) leukemia; 30 µM in the experiment on NCI/ADR-RES ovarian; 12.8 µM in the experiment on HCC-2998 colon; 27.5 µM in the experiment with TK-10 renal; 12.7 µM in the experiment on SK-MEL-5 melanoma; 24.8 µM with U251 CNS. Further, the TGI came out at 9.01 µM in the experiment on MDA-MB-435, 16.2 µM in the experiment with PC-3 prostate, 32.3 µM in the experiment on OVCAR-4 ovarian and 21.3 µM in the experiment on SW-620 colon.
Consider `O=c1ccn(COC(COCc2ccccc2)COCc2ccccc2)c(=O)[nH]1`, for which the TGI with HL-60(TB) leukemia, with NCI/ADR-RES ovarian, in the experiment with HCC-2998 colon, in the experiment with TK-10 renal, with SK-MEL-5 melanoma and with U251 CNS was more than 100 µM in each case. Besides, the TGI with MDA-MB-435, in the experiment with PC-3 prostate, in the experiment on OVCAR-4 ovarian and in the experiment with SW-620 colon was more than 100 µM in each case.
With `O=C1CSC(c2ccccc2[N+](=O)[O-])N1c1ccc(-c2ccc(-n3c(-c4ccccc4)nc4ccccc4c3=O)cc2)cc1` (configuration not stated), the TGI in the experiment on HL-60(TB) leukemia, with NCI/ADR-RES ovarian, in the experiment on HCC-2998 colon, in the experiment with TK-10 renal, in the experiment with SK-MEL-5 melanoma and in the experiment with U251 CNS was more than 100 µM each time. In addition, the TGI with MDA-MB-435, with PC-3 prostate, in the experiment with OVCAR-4 ovarian and with SW-620 colon was more than 100 µM each time.
Turning to `COC1CN(C)C(=Nc2cccc3ccccc23)S1` (configuration not stated), the TGI in the experiment on HL-60(TB) leukemia, in the experiment with NCI/ADR-RES ovarian, in the experiment with HCC-2998 colon, with TK-10 renal, in the experiment on SK-MEL-5 melanoma and with U251 CNS was more than 10 µM in each case. The TGI with MDA-MB-435, with PC-3 prostate, in the experiment with OVCAR-4 ovarian and with SW-620 colon was more than 10 µM each time.
`CC[C@@]1(C)CCC2c3ccc(O)cc3CC[C@H]2C1C` (some centres not stated): the TGI with HL-60(TB) leukemia was 29 µM; in the experiment with NCI/ADR-RES ovarian, 35.7 µM; with HCC-2998 colon, 27.1 µM; with TK-10 renal, 33.3 µM; in the experiment on SK-MEL-5 melanoma, 30.7 µM; with U251 CNS, 30.9 µM. In addition, the TGI in the experiment with MDA-MB-435 was 30.2 µM; with PC-3 prostate, 34 µM; with OVCAR-4 ovarian, 35.7 µM; in the experiment with SW-620 colon, 32.4 µM.
In the case of `CN1C(=O)C2(C=CC(O)CC2)c2ccccc21` (configuration not stated), the TGI with HL-60(TB) leukemia, with NCI/ADR-RES ovarian, with HCC-2998 colon, with TK-10 renal, with SK-MEL-5 melanoma and in the experiment with U251 CNS was more than 100 µM each time. Moreover, the TGI with MDA-MB-435, in the experiment on PC-3 prostate, in the experiment on OVCAR-4 ovarian and with SW-620 colon was more than 100 µM each time.
`COc1ccc(CCCNC(=O)c2cc(OC)c(OC)cc2CCO)cc1OC`: the TGI in the experiment on HL-60(TB) leukemia, with NCI/ADR-RES ovarian, in the experiment on HCC-2998 colon, in the experiment on TK-10 renal, with SK-MEL-5 melanoma and with U251 CNS was more than 100 µM throughout. The TGI in the experiment on MDA-MB-435, with PC-3 prostate, in the experiment with OVCAR-4 ovarian and with SW-620 colon was more than 100 µM in each case.
As for `COc1ccc(N2C(=O)C3c4[nH]c5ccc(Br)cc5c4C4CCC(C(C)(C)C)CC4C3C2=O)cc1` (configuration not stated), the TGI in the experiment with HL-60(TB) leukemia, in the experiment on NCI/ADR-RES ovarian, with HCC-2998 colon, in the experiment on TK-10 renal, with SK-MEL-5 melanoma and with U251 CNS was more than 100 µM throughout. For the same compound, the TGI with MDA-MB-435, in the experiment with PC-3 prostate, with OVCAR-4 ovarian and in the experiment on SW-620 colon was more than 100 µM each time.
On to `CC1SCc2nc3ccccc3n21` (configuration not stated), for which the TGI in the experiment on HL-60(TB) leukemia, in the experiment on NCI/ADR-RES ovarian, with HCC-2998 colon, with TK-10 renal, with SK-MEL-5 melanoma and with U251 CNS was more than 100 µM each time. Moreover, the TGI in the experiment with MDA-MB-435, in the experiment with PC-3 prostate and in the experiment on OVCAR-4 ovarian was more than 100 µM in each case.
In the case of `CCOC(=O)C(Cc1ccc(OC(=O)c2ccc(OC)cc2)cc1)NC(=O)C(F)(F)F` (configuration not stated), the TGI with HL-60(TB) leukemia, in the experiment on NCI/ADR-RES ovarian, with HCC-2998 colon, with TK-10 renal, in the experiment on SK-MEL-5 melanoma and in the experiment with U251 CNS was more than 100 µM throughout. The TGI in the experiment with MDA-MB-435, in the experiment on PC-3 prostate, in the experiment with OVCAR-4 ovarian and in the experiment on SW-620 colon was more than 100 µM throughout.
With `CCCCCCCCCCCCCCCCCCNC(=S)/N=C\C1=C(O)c2ccccc2C1=O`, the TGI with HL-60(TB) leukemia was more than 100 µM; in the experiment with NCI/ADR-RES ovarian, 31.7 µM; in the experiment with HCC-2998 colon it was 6.4 µM; in the experiment on TK-10 renal it was 30.6 µM; in the experiment on SK-MEL-5 melanoma it was 34.7 µM; in the experiment on U251 CNS, 18.3 µM. Moreover, the TGI was 30.9 µM in the experiment with MDA-MB-435, 15.9 µM with PC-3 prostate and 25.3 µM in the experiment with SW-620 colon.
